The source of these data is patent US9732044B2, “N-(pyrid-4-yl)amides and N-(pyrimidin-4-yl)amides and their pharmaceutical and cosmetic use” (GALDERMA RESEARCH & DEVELOPMENT, priority 2011, dated 2017).

The target in one experiment is androgen receptor (AR) (Homo sapiens (Human), UniProt P10275). As to the kind of experiment: Androgen receptor transactivation test in PALM cell line (cross curves against methyl trienolone). Conditions: read-out: Kdapp. It is filed as cell-based. How it is done:
This AR inhibiting activity was measured in a transactivation test by the dissociation constants KdR (rest), KdA (active), and Kdapp (apparent).
A compound may be said to be an AR inhibitor if it has a dissociation constant, Kdapp, of less than or equal to 1 μM, and a KdR/KdA ratio of less than or equal to 10 in a transactivation test.
The transactivation test is carried out in the cell line PALM (PC3 androgen receptor Luciferase MMTV), which is a stable transfectant containing the plasmids PMMTV-neo-Luc (reporter gene) and pSG5puro-AR.
In this study, the affinity of each test compound for the 2 states of the receptor (KdR and KdA) is determined together with the apparent Kd (KdApp). This constant depends upon the 2 Kd's (KdR and KdA), but also depends on the initial equilibrium of the receptor between the active state and rest state (L0) and on its expression rate. It is determined by the following formula: 1/KdApp=(L0/(1+L0))×(1/KdR)+(1/(1+L0))×(1/KdA)
In order to determine these constants, “cross curves” of the test compound against a reference agonist, methyl trienolone, are carried out on a 96-well plate. The test compound is used in 10 concentrations and the reference agonist in 7 concentrations.

Experiment [1] relates to sebaceous gland of the ear of a Syrian hamster. As to the kind of experiment: In vivo animal model with reduction in the size of the sebaceous glands (Syrian hamster ear). To be noted: 1 g %/mL solution, topical on ear, daily for 24 days, compared to control (absolute ethanol). The text has this: The model of the sebaceous gland of the ear of a Syrian hamster described by Plewig and Luderschmidt in J. Inv. Derm., (1977), pp. 171-176 is a classical tool for the in vivo study of the function of the sebaceous gland. In fact, the inner faces of the ear lobes of the hamster contain a high number of sebaceous glands described as being similar to those of human sebaceous follicles in terms of certain characteristics, including their morphology and response to androgens and anti-androgens. In fact the growth and lipogenesis of the sebaceous glands on the inner face of the ear of Syrian hamsters depend on the androgens. The anti-androgenic activity of test compounds can be easily evaluated by measuring the size of the sebaceous glands. Moreover, this model has been selected to evaluate the efficacy of the antagonists of the receptor to the androgens on the sebaceous gland.
Test compounds were evaluated according to the following protocol: male hamsters aged weeks were treated daily for 24 days on the inner face of the right ear with 30 μL of a solution of the test compound to be evaluated in absolute ethanol. For each test compound, groups were treated with solutions at a range of concentrations (e.g., from 0.01 g %/mL to 3 g %/mL), as well as absolute ethanol used as a control. (A concentration of 3 g %/mL means a concentration of 0.03 g/mL.)
At the end of the study, samples were taken from the treated ears. The skin of the inner face of the ear was separated from the cartilage. Under a binocular magnifying glass, two zones of 4 mm^2 were numbered. The size of the sebaceous glands was measured on the numerical images by manually trimming the glands by means of image analysis software (TINA.20). For each image some twenty glands were measured. The average area of the sebaceous glands was calculated for each treatment group.
A Student t-test for independent groups comparing each dose with vehicle was carried out to compare the average size of the sebaceous glands as a function of the doses applied. When the evolution of the effect is represented graphically as a function of the administered dose of test compound, the curve obtained is sigmoid in shape. In the median part, this sigmoid may be likened to a straight line. The dose corresponding to 50% of the maximum effect corresponds graphically to the point located in the centre of the linear section defined as “effective dose 50”. This DE50 characterises the potency of the test compound.

[2] abbreviates: apparent dissociation constant, PALM cells (PC3 androgen receptor Luciferase MMTV).

Read-outs that look alike come from different tables or passages of the source. Some results are limits rather than exact numbers.

Chain of androgen receptor (AR) (P10275 whole entry): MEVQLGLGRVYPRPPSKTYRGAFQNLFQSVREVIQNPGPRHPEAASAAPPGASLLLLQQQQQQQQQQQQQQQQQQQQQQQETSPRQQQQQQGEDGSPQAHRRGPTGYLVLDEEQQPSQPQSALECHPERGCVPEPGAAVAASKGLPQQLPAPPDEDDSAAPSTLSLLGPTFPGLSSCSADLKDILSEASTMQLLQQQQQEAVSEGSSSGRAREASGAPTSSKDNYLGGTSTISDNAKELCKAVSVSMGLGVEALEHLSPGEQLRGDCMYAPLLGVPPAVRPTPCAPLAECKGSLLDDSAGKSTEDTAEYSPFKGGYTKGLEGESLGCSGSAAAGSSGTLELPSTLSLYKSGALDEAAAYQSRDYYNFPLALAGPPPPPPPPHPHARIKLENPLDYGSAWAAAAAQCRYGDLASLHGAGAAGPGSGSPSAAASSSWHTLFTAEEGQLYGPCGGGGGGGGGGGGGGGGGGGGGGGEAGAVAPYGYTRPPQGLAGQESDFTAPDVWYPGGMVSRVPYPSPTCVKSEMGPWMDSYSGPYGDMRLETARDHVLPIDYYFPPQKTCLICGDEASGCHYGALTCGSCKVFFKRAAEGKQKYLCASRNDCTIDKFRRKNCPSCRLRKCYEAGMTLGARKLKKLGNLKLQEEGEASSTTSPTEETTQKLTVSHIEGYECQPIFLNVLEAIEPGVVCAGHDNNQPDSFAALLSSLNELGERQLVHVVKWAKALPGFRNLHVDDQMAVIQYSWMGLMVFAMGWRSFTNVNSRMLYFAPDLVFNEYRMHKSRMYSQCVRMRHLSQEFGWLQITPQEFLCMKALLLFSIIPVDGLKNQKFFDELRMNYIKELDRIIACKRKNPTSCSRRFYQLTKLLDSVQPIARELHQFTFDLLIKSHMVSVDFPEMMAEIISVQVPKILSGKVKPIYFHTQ

For `COc1cc(NC(=O)C(C)(O)CC(C)C)cc(Br)n1` (racemic) [Compound 41, 2-Hydroxy-2,4-dimethyl-pentanoic acid (2-bromo-6-methoxy-pyridin-4-yl)-amide], the Kd at androgen receptor (AR) (setting [2]) is 20 nM; at androgen receptor (AR) (threshold lists, PALM cells) it was at most 30 nM. Besides, the “Reduction of sebaceous glands (following treatment at 1 g %/mL)” value in experiment [1] is reported as 61%. For `COc1cc(NC(=O)C(C)(O)CC(C)C)cc(Br)n1` (single isomer, unassigned) [Compound 71A], the Kd at androgen receptor (AR) (threshold lists, PALM cells) is at most 30 nM.

Consider `COc1cc(NC(=O)C(C)(O)CC(C)C)cc(Br)n1` (single isomer, unassigned) [Compound 71B], for which the Kd on androgen receptor (AR) (threshold lists, PALM cells) was at most 30 nM. For the same compound, the “Reduction of sebaceous glands (following treatment at 1 g %/mL)” value in experiment [1] is reported as 56%. With `CCCCC(C)(O)C(=O)Nc1ccnc(Br)c1` (single isomer, unassigned) [Compound 80A, 2-Hydroxy-2-methyl-hexanoic acid (2-bromo-pyridin-4-yl)-amide], on androgen receptor (AR) (threshold lists, PALM cells), the Kd is at most 100 nM. The “Reduction of sebaceous glands (following treatment at 1 g %/mL)” value in experiment [1] is reported as 51%.

Turning to `CCCCC(C)(O)C(=O)Nc1ccnc(Br)c1` (single isomer, unassigned) [Compound 80B, 2-Hydroxy-2-methyl-hexanoic acid (2-bromo-pyridin-4-yl)-amide], the Kd at androgen receptor (AR) (threshold lists, PALM cells) is at most 300 nM. As to `CCCC(C)(O)C(=O)Nc1ccnc(Br)c1` (stereo not shown) [Compound 1, 2-Hydroxy-2-methyl-pentanoic acid (2-bromo-pyridin-4-yl)-amide], the Kd was 75 nM at androgen receptor (AR) (setting [2]) and at most 100 nM at androgen receptor (AR) (threshold lists, PALM cells). The “Reduction of sebaceous glands (following treatment at 1 g %/mL)” value in experiment [1] stood at 53%. For the compound `CCCCC(C)(O)C(=O)Nc1cc(Br)nc(OC)c1` (stereo not shown) [Compound 8, 2-Hydroxy-2-methyl-hexanoic acid (2-bromo-6-methoxy-pyridin-4-yl)-amide], the Kd is 30 nM at androgen receptor (AR) (setting [2]) and at most 30 nM at androgen receptor (AR) (threshold lists, PALM cells). Also, the “Reduction of sebaceous glands (following treatment at 1 g %/mL)” value in experiment [1] was 56%.

As to `CCC(O)(C(=O)Nc1cc(Br)nc(OC)c1)C1CCCC1` (stereo not shown) [Compound 9, N-(2-Bromo-6-methoxy-pyridin-4-yl)-2-cyclopentyl-2-hydroxy-butyramide], the Kd on androgen receptor (AR) (threshold lists, PALM cells) was at most 30 nM. Still for that read-out and setting: with `CCC(O)(C(=O)Nc1cc(Br)nc(OC)c1)C(C)C` (stereo not shown) [Compound 13, N-(2-Bromo-6-methoxy-pyridin-4-yl)-2-ethyl-2-hydroxy-3-methyl-butyramide] the figure was at most 30 nM.

With `CCCC(O)(CC)C(=O)Nc1cc(Br)nc(OC)c1` (stereo not shown) [Compound 19, 2-Ethyl-2-hydroxy-pentanoic acid (2-bromo-6-methoxy-pyridin-4-yl)-amide], on androgen receptor (AR) (threshold lists, PALM cells), the Kd was at most 30 nM. In addition, in experiment [1], the “Reduction of sebaceous glands (following treatment at 1 g %/mL)” value amounted to 61%. Take `CCCCC(O)(CCCC)C(=O)Nc1ccnc(Br)c1` [Compound 23, 2-Butyl-2-hydroxy-hexanoic acid (2-bromo-pyridin-4-yl)-amide]: the Kd at androgen receptor (AR) (setting [2]) was 15 nM; at androgen receptor (AR) (threshold lists, PALM cells) it was at most 30 nM. For the same compound, the “Reduction of sebaceous glands (following treatment at 1 g %/mL)” value in experiment [1] is 51%.

With `COc1ccc(CCC(C)(O)C(=O)Nc2ccnc(Br)c2)cc1` (stereo not shown) [Compound 24, N-(2-Bromo-pyridin-4-yl)-2-hydroxy-4-(4-methoxy-phenyl)-2-methyl-butyramide], the Kd on androgen receptor (AR) (setting [2]) is 300 nM; at androgen receptor (AR) (threshold lists, PALM cells), at most 300 nM. On to `COc1cc(NC(=O)C(C)(O)C(C)C)cc(Br)n1` (stereo not shown) [Compound 25, N-(2-Bromo-6-methoxy-pyridin-4-yl)-2-hydroxy-2,3-dimethyl-butyramide], for which the Kd on androgen receptor (AR) (threshold lists, PALM cells) is at most 30 nM. Still for that read-out and setting: with `COc1cc(NC(=O)C(C)(O)c2ccc(F)cc2)ccn1` (stereo not shown) [Compound 27, 2-(4-Fluoro-phenyl)-2-hydroxy-N-(2-methoxy-pyridin-4-yl)-propionamide] the figure was at most 300 nM. Take `CC(O)(C(=O)Nc1ccnc(Br)c1)c1ccccc1` (stereo not shown) [Compound 32, N-(2-Bromo-pyridin-4-yl)-2-hydroxy-2-phenyl-propionamide]: the Kd on androgen receptor (AR) (setting [2]) was 100 nM; at androgen receptor (AR) (threshold lists, PALM cells), at most 100 nM. With `COc1cc(NC(=O)C(C)(C)O)cc(Br)n1` [Compound 38, N-(2-Bromo-6-methoxy-pyridin-4-yl)-2-hydroxy-2-methyl-propionamide], the Kd on androgen receptor (AR) (threshold lists, PALM cells) is at most 300 nM. Same read-out and setting: for `CCC(O)(C(=O)Nc1ccnc(Br)c1)C1CCCC1` (stereo not shown) [Compound 51, N-(2-Bromo-pyridin-4-yl)-2-cyclopentyl-2-hydroxy-butyramide] the value was at most 30 nM. On to `CCCC(C)(O)C(=O)Nc1ccnc(C(=O)OC)c1` (stereo not shown) [Compound 59, 4-(2-Hydroxy-2-methyl-pentanoylamino)-pyridine-2-carboxylic acid methyl ester], for which the Kd at androgen receptor (AR) (setting [2]) was 6000 nM; on androgen receptor (AR) (threshold lists, PALM cells) it was at most 10000 nM. On to `CCCC(C)(O)C(=O)Nc1cc(Br)nc(OC)c1` (stereo not shown) [Compound 60, 2-Hydroxy-2-methyl-pentanoic acid (2-bromo-6-methoxy-pyridin-4-yl)-amide], for which the Kd on androgen receptor (AR) (threshold lists, PALM cells) was at most 100 nM. On to `CCCC(O)(C(=O)Nc1cc(Br)nc(OC)c1)C(C)C` (stereo not shown) [Compound 64, 2-Hydroxy-2-isopropyl-pentanoic acid (2-bromo-6-methoxy-pyridin-4-yl)-amide], for which, at androgen receptor (AR) (threshold lists, PALM cells), the Kd was at most 30 nM. With `CCCCC(O)(CCCC)C(=O)Nc1cc(Br)nc(OC)c1` [Compound 66, 2-Butyl-2-hydroxy-hexanoic acid (2-bromo-6-methoxy-pyridin-4-yl)-amide], the Kd on androgen receptor (AR) (threshold lists, PALM cells) is at most 100 nM. For the compound `COc1cc(NC(=O)C(C)(O)C2CCOCC2)cc(Br)n1` (stereo not shown) [Compound 69, N-(2-Bromo-6-methoxy-pyridin-4-yl)-2-hydroxy-2-(tetrahydro-pyran-4-yl)-propionamide], the Kd on androgen receptor (AR) (threshold lists, PALM cells) is at most 1000 nM. The same measure, in the same setting: for `CCC(O)(C(=O)Nc1cc(Br)nc(OC)c1)C1CCCC1` (stereo not shown) [Compound 73A, N-(2-Bromo-6-methoxy-pyridin-4-yl)-2-cyclopentyl-2-hydroxy-butyramide] the value was at most 30 nM; for `CCC(O)(C(=O)Nc1cc(Br)nc(OC)c1)C1CCCC1` (stereo not shown) [Compound 73B, N-(2-Bromo-6-methoxy-pyridin-4-yl)-2-cyclopentyl-2-hydroxy-butyramide], at most 100 nM. Take `CCC(O)(C(=O)Nc1cc(Br)nc(OC)c1)C(C)C` (stereo not shown) [Compound 74A, N-(2-Bromo-6-methoxy-pyridin-4-yl)-2-ethyl-2-hydroxy-3-methyl-butyramide]: on androgen receptor (AR) (threshold lists, PALM cells), the Kd is at most 30 nM. `CCCC(O)(CC)C(=O)Nc1cc(Br)nc(OC)c1` (stereo not shown) [Compound 75A, 2-Ethyl-2-hydroxy-pentanoic acid (2-bromo-6-methoxy-pyridin-4-yl)-amide]: the Kd at androgen receptor (AR) (threshold lists, PALM cells) was at most 100 nM. On to `CCCC(O)(CC)C(=O)Nc1cc(Br)nc(OC)c1` (stereo not shown) [Compound 75B, 2-Ethyl-2-hydroxy-pentanoic acid (2-bromo-6-methoxy-pyridin-4-yl)-amide], for which the Kd at androgen receptor (AR) (threshold lists, PALM cells) is at most 100 nM. Same read-out and setting: with `COc1cc(NC(=O)C(C)(O)C(C)C)cc(Br)n1` (stereo not shown) [Compound 76B, N-(2-Bromo-6-methoxy-pyridin-4-yl)-2-hydroxy-2,3-dimethyl-butyramide] the figure was at most 100 nM; with `CCC(O)(C(=O)Nc1ccnc(Br)c1)C1CCCC1` (stereo not shown) [Compound 77A, N-(2-Bromo-pyridin-4-yl)-2-cyclopentyl-2-hydroxy-butyramide], at most 30 nM; with `CCC(O)(C(=O)Nc1ccnc(Br)c1)C1CCCC1` (stereo not shown) [Compound 77B, N-(2-Bromo-pyridin-4-yl)-2-cyclopentyl-2-hydroxy-butyramide], at most 30 nM.

For the compound `CCCC(C)(O)C(=O)Nc1cc(Br)nc(OC)c1` (stereo not shown) [Compound 78A, 2-Hydroxy-2-methyl-pentanoic acid (2-bromo-6-methoxy-pyridin-4-yl)-amide], the Kd on androgen receptor (AR) (threshold lists, PALM cells) was at most 100 nM. As to `CCCC(O)(C(=O)Nc1cc(Br)nc(OC)c1)C(C)C` (stereo not shown) [Compound 79B, 2-Hydroxy-2-isopropyl-pentanoic acid (2-bromo-6-methoxy-pyridin-4-yl)-amide], the Kd at androgen receptor (AR) (threshold lists, PALM cells) is at most 30 nM.
